From PubChem BioAssay (NCI) come the findings set out here.

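Values below derive from 48-hour exposures of cells grown in 96-well plates, with endpoints linearly interpolated between the two concentrations bracketing the appropriate inhibition level. At the TGI there is no net growth.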

One assay concerns K-562 leukemia. Put plainly: NCI tumour cell line growth inhibition, 48 h.
Compound `O=C(CSc1nnc(-c2ccc(N=Cc3ccc(Cl)cc3)cc2)o1)Nc1ccc(Cl)cc1` gave a TGI greater than 100 µM.

A further assay deals with SK-MEL-28 melanoma. Description: NCI tumour cell line growth inhibition, 48 h.
`CC[C@@]12N=C(N(C)C)C[C@]1(O)ON=C2C` gave a TGI greater than 100 µM.

Compound `CCOC(=O)NC(=O)c1cn(CCOC(=O)NCCCCCCNC(=O)OCCn2cc(C(=O)NC(=O)OCC)c(=O)[nH]c2=O)c(=O)[nH]c1=O` had a TGI greater than 100 µM.

`COC1[C@@H](OC(C)=O)[C@@H](NC(=O)C(Cl)(Cl)Cl)C(I)[C@@H](N2C(=O)c3ccccc3C2=O)[C@H]1OC` (stereo not given in full) showed a TGI greater than 100 µM.

`O=S(Cc1ccccn1)c1nc2ccccc2nc1-c1ccccc1` (stereo not given): the TGI is greater than 100 µM.

The compound `O=C(CSc1nnc(-c2ccc(N=Cc3ccc(Cl)cc3)cc2)o1)Nc1ccc(Cl)cc1` returned a TGI greater than 100 µM.

Another assay has as its system A498 renal. Description: NCI tumour cell line growth inhibition, 48 h.
Consider `CC[C@@]12N=C(N(C)C)C[C@]1(O)ON=C2C`, for which the TGI is greater than 100 µM.

In turn, `CCOC(=O)NC(=O)c1cn(CCOC(=O)NCCCCCCNC(=O)OCCn2cc(C(=O)NC(=O)OCC)c(=O)[nH]c2=O)c(=O)[nH]c1=O` yielded a TGI greater than 100 µM.

The compound `COC1[C@@H](OC(C)=O)[C@@H](NC(=O)C(Cl)(Cl)Cl)C(I)[C@@H](N2C(=O)c3ccccc3C2=O)[C@H]1OC` (stereo not given in full) came in with a TGI greater than 100 µM.

The next assay deals with SR leukemia. Put plainly: NCI tumour cell line growth inhibition, 48 h.
`CC[C@@]12N=C(N(C)C)C[C@]1(O)ON=C2C`: the TGI was greater than 100 µM.

Regarding `COC1[C@@H](OC(C)=O)[C@@H](NC(=O)C(Cl)(Cl)Cl)C(I)[C@@H](N2C(=O)c3ccccc3C2=O)[C@H]1OC` (stereo not given in full), the TGI is greater than 100 µM.

With `O=C(CSc1nnc(-c2ccc(N=Cc3ccc(Cl)cc3)cc2)o1)Nc1ccc(Cl)cc1`, the TGI is greater than 100 µM.

The subject of the next assay is U251 CNS. Description: NCI tumour cell line growth inhibition, 48 h.
Turning to `CC[C@@]12N=C(N(C)C)C[C@]1(O)ON=C2C`, the TGI was greater than 100 µM.

Consider `CCOC(=O)NC(=O)c1cn(CCOC(=O)NCCCCCCNC(=O)OCCn2cc(C(=O)NC(=O)OCC)c(=O)[nH]c2=O)c(=O)[nH]c1=O`, for which the TGI is greater than 100 µM.

`COC1[C@@H](OC(C)=O)[C@@H](NC(=O)C(Cl)(Cl)Cl)C(I)[C@@H](N2C(=O)c3ccccc3C2=O)[C@H]1OC` (stereo not given in full) showed a TGI greater than 100 µM.

In the case of `O=S(Cc1ccccn1)c1nc2ccccc2nc1-c1ccccc1` (stereo not given), the TGI is greater than 100 µM.

Compound `O=C(CSc1nnc(-c2ccc(N=Cc3ccc(Cl)cc3)cc2)o1)Nc1ccc(Cl)cc1` returned a TGI greater than 100 µM.

For another assay, the system named is HOP-18 NSCLC. Description: NCI tumour cell line growth inhibition, 48 h.
As for `CC[C@@]12N=C(N(C)C)C[C@]1(O)ON=C2C`, the TGI was greater than 100 µM.

Turning to `CCOC(=O)NC(=O)c1cn(CCOC(=O)NCCCCCCNC(=O)OCCn2cc(C(=O)NC(=O)OCC)c(=O)[nH]c2=O)c(=O)[nH]c1=O`, the TGI is greater than 100 µM.

On to `COC1[C@@H](OC(C)=O)[C@@H](NC(=O)C(Cl)(Cl)Cl)C(I)[C@@H](N2C(=O)c3ccccc3C2=O)[C@H]1OC` (stereo not given in full), for which the TGI was greater than 100 µM.

In the case of `O=S(Cc1ccccn1)c1nc2ccccc2nc1-c1ccccc1` (stereo not given), the TGI was greater than 100 µM.

As for `O=C(CSc1nnc(-c2ccc(N=Cc3ccc(Cl)cc3)cc2)o1)Nc1ccc(Cl)cc1`, the TGI is greater than 100 µM.

For the next assay, the system named is OVCAR-3 ovarian. Description: NCI tumour cell line growth inhibition, 48 h.
In the case of `CC[C@@]12N=C(N(C)C)C[C@]1(O)ON=C2C`, the TGI is greater than 100 µM.

`CCOC(=O)NC(=O)c1cn(CCOC(=O)NCCCCCCNC(=O)OCCn2cc(C(=O)NC(=O)OCC)c(=O)[nH]c2=O)c(=O)[nH]c1=O` showed a TGI greater than 100 µM.

In turn, `O=S(Cc1ccccn1)c1nc2ccccc2nc1-c1ccccc1` (stereo not given) yielded a TGI greater than 100 µM.

A further assay concerns HOP-92 NSCLC. Description: NCI tumour cell line growth inhibition, 48 h.
For `CC[C@@]12N=C(N(C)C)C[C@]1(O)ON=C2C`, the TGI is greater than 100 µM.

The compound `COC1[C@@H](OC(C)=O)[C@@H](NC(=O)C(Cl)(Cl)Cl)C(I)[C@@H](N2C(=O)c3ccccc3C2=O)[C@H]1OC` (stereo not given in full) came in with a TGI greater than 100 µM.

For the compound `O=S(Cc1ccccn1)c1nc2ccccc2nc1-c1ccccc1` (stereo not given), the TGI worked out at 83.3 µM.

The next assay deals with SF-539 CNS. Put plainly: NCI tumour cell line growth inhibition, 48 h.
For the compound `CC[C@@]12N=C(N(C)C)C[C@]1(O)ON=C2C`, the TGI was greater than 100 µM.

Compound `COC1[C@@H](OC(C)=O)[C@@H](NC(=O)C(Cl)(Cl)Cl)C(I)[C@@H](N2C(=O)c3ccccc3C2=O)[C@H]1OC` (stereo not given in full) gave a TGI greater than 100 µM.

The next assay has as its system HCT-116 colon. Description: NCI tumour cell line growth inhibition, 48 h.
As to `CC[C@@]12N=C(N(C)C)C[C@]1(O)ON=C2C`, the TGI was greater than 100 µM.

Compound `CCOC(=O)NC(=O)c1cn(CCOC(=O)NCCCCCCNC(=O)OCCn2cc(C(=O)NC(=O)OCC)c(=O)[nH]c2=O)c(=O)[nH]c1=O` displayed a TGI greater than 100 µM.

Take `COC1[C@@H](OC(C)=O)[C@@H](NC(=O)C(Cl)(Cl)Cl)C(I)[C@@H](N2C(=O)c3ccccc3C2=O)[C@H]1OC` (stereo not given in full): the TGI is greater than 100 µM.

Consider `O=S(Cc1ccccn1)c1nc2ccccc2nc1-c1ccccc1` (stereo not given), for which the TGI was greater than 100 µM.

In the case of `O=C(CSc1nnc(-c2ccc(N=Cc3ccc(Cl)cc3)cc2)o1)Nc1ccc(Cl)cc1`, the TGI was greater than 100 µM.

The next assay deals with SK-OV-3 ovarian. Put plainly: NCI tumour cell line growth inhibition, 48 h.
Consider `CC[C@@]12N=C(N(C)C)C[C@]1(O)ON=C2C`, for which the TGI is greater than 100 µM.

Consider `CCOC(=O)NC(=O)c1cn(CCOC(=O)NCCCCCCNC(=O)OCCn2cc(C(=O)NC(=O)OCC)c(=O)[nH]c2=O)c(=O)[nH]c1=O`, for which the TGI was greater than 100 µM.

For the compound `O=S(Cc1ccccn1)c1nc2ccccc2nc1-c1ccccc1` (stereo not given), the TGI is greater than 100 µM.

The compound `O=C(CSc1nnc(-c2ccc(N=Cc3ccc(Cl)cc3)cc2)o1)Nc1ccc(Cl)cc1` came in with a TGI greater than 100 µM.

Another assay concerns HCC-2998 colon. Put plainly: NCI tumour cell line growth inhibition, 48 h.
On to `CC[C@@]12N=C(N(C)C)C[C@]1(O)ON=C2C`, for which the TGI is greater than 100 µM.

Regarding `CCOC(=O)NC(=O)c1cn(CCOC(=O)NCCCCCCNC(=O)OCCn2cc(C(=O)NC(=O)OCC)c(=O)[nH]c2=O)c(=O)[nH]c1=O`, the TGI is greater than 100 µM.

A further assay has as its system HT29 colon. Description: NCI tumour cell line growth inhibition, 48 h.
As for `CC[C@@]12N=C(N(C)C)C[C@]1(O)ON=C2C`, the TGI is greater than 100 µM.

As to `CCOC(=O)NC(=O)c1cn(CCOC(=O)NCCCCCCNC(=O)OCCn2cc(C(=O)NC(=O)OCC)c(=O)[nH]c2=O)c(=O)[nH]c1=O`, the TGI was greater than 100 µM.

As to `COC1[C@@H](OC(C)=O)[C@@H](NC(=O)C(Cl)(Cl)Cl)C(I)[C@@H](N2C(=O)c3ccccc3C2=O)[C@H]1OC` (stereo not given in full), the TGI was greater than 100 µM.

Compound `O=S(Cc1ccccn1)c1nc2ccccc2nc1-c1ccccc1` (stereo not given) registered a TGI greater than 100 µM.

Regarding `O=C(CSc1nnc(-c2ccc(N=Cc3ccc(Cl)cc3)cc2)o1)Nc1ccc(Cl)cc1`, the TGI is greater than 100 µM.

In the next assay the test system is UO-31 renal. Description: NCI tumour cell line growth inhibition, 48 h.
Consider `CC[C@@]12N=C(N(C)C)C[C@]1(O)ON=C2C`, for which the TGI is greater than 100 µM.

Compound `CCOC(=O)NC(=O)c1cn(CCOC(=O)NCCCCCCNC(=O)OCCn2cc(C(=O)NC(=O)OCC)c(=O)[nH]c2=O)c(=O)[nH]c1=O` yielded a TGI greater than 100 µM.

In the case of `O=S(Cc1ccccn1)c1nc2ccccc2nc1-c1ccccc1` (stereo not given), the TGI was determined as 90.4 µM.

Take `O=C(CSc1nnc(-c2ccc(N=Cc3ccc(Cl)cc3)cc2)o1)Nc1ccc(Cl)cc1`: the TGI is greater than 100 µM.

The subject of another assay is TK-10 renal. Description: NCI tumour cell line growth inhibition, 48 h.
`CC[C@@]12N=C(N(C)C)C[C@]1(O)ON=C2C` gave a TGI greater than 100 µM.

Compound `O=C(CSc1nnc(-c2ccc(N=Cc3ccc(Cl)cc3)cc2)o1)Nc1ccc(Cl)cc1` yielded a TGI greater than 100 µM.

In a further assay the test system is A549 NSCLC. Description: NCI tumour cell line growth inhibition, 48 h.
Take `CC[C@@]12N=C(N(C)C)C[C@]1(O)ON=C2C`: the TGI was greater than 100 µM.

The compound `CCOC(=O)NC(=O)c1cn(CCOC(=O)NCCCCCCNC(=O)OCCn2cc(C(=O)NC(=O)OCC)c(=O)[nH]c2=O)c(=O)[nH]c1=O` showed a TGI greater than 100 µM.

For the compound `COC1[C@@H](OC(C)=O)[C@@H](NC(=O)C(Cl)(Cl)Cl)C(I)[C@@H](N2C(=O)c3ccccc3C2=O)[C@H]1OC` (stereo not given in full), the TGI is greater than 100 µM.

As for `O=S(Cc1ccccn1)c1nc2ccccc2nc1-c1ccccc1` (stereo not given), the TGI is greater than 100 µM.

In the case of `O=C(CSc1nnc(-c2ccc(N=Cc3ccc(Cl)cc3)cc2)o1)Nc1ccc(Cl)cc1`, the TGI was greater than 100 µM.

For another assay, the system named is UACC-62 melanoma. Description: NCI tumour cell line growth inhibition, 48 h.
Consider `CCOC(=O)NC(=O)c1cn(CCOC(=O)NCCCCCCNC(=O)OCCn2cc(C(=O)NC(=O)OCC)c(=O)[nH]c2=O)c(=O)[nH]c1=O`, for which the TGI was greater than 100 µM.

As for `COC1[C@@H](OC(C)=O)[C@@H](NC(=O)C(Cl)(Cl)Cl)C(I)[C@@H](N2C(=O)c3ccccc3C2=O)[C@H]1OC` (stereo not given in full), the TGI is greater than 100 µM.

As for `O=C(CSc1nnc(-c2ccc(N=Cc3ccc(Cl)cc3)cc2)o1)Nc1ccc(Cl)cc1`, the TGI is greater than 100 µM.
